The record followed here is PubChem BioAssay (NCI).

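Cultured in 96-well plates, cells were exposed to test compound for 48 hours across five concentrations. Abbreviation: GI50, concentration required for 50% inhibition of growth. The concentration for full growth arrest is given as TGI.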

Test systems include ACHN renal; CAKI-1 renal; HCC-2998 colon; NCI-H23 lung; OVCAR-5 ovarian; RPMI-8226 leukemia; SN12C renal; U251 CNS; UACC-257 melanoma; UO-31 renal.
Common to all, as to experiment: NCI tumour cell line growth inhibition, 48 h

Turning to `O=c1[nH]nc(-c2ccccc2)n1O`, the TGI in the experiment on ACHN renal, in the experiment on CAKI-1 renal, with HCC-2998 colon, with NCI-H23 lung, in the experiment on OVCAR-5 ovarian and in the experiment on RPMI-8226 leukemia was over 100 µM throughout. Besides, the TGI with SN12C renal, in the experiment on U251 CNS, in the experiment on UACC-257 melanoma and in the experiment on UO-31 renal was over 100 µM each time.
Consider `COc1cccc(C(=O)C#Cc2cnc(OC)nc2OC)c1`, for which the TGI is 3.5 µM in the experiment with ACHN renal; 4.39 µM in the experiment with CAKI-1 renal; 17.5 µM in the experiment on HCC-2998 colon; 5.5 µM in the experiment on NCI-H23 lung; 8.05 µM in the experiment on OVCAR-5 ovarian; 6.43 µM in the experiment with RPMI-8226 leukemia. Also, the TGI is 2 µM with SN12C renal, 7.27 µM in the experiment on U251 CNS, 6.42 µM in the experiment on UACC-257 melanoma and 2.67 µM with UO-31 renal.
Take `CCC1C(c2ccccc2O)c2cc3c(cc2OC1N1CCOCC1)OCO3` (stereo not given): the TGI in the experiment on ACHN renal was determined as 26 µM; in the experiment on CAKI-1 renal it was 34.1 µM; with HCC-2998 colon, 31 µM; in the experiment on NCI-H23 lung, 34.5 µM; in the experiment on OVCAR-5 ovarian, 28.7 µM; in the experiment with RPMI-8226 leukemia it was 43.8 µM. The TGI is 29.4 µM in the experiment with SN12C renal, 26.4 µM in the experiment on U251 CNS, 31.6 µM in the experiment with UACC-257 melanoma and 27 µM in the experiment on UO-31 renal.
With `CC(C)(C)OC(=O)NCCCCC(N)NC(=O)c1ccccc1` (stereo not given), the TGI in the experiment with ACHN renal, with CAKI-1 renal, in the experiment on HCC-2998 colon, in the experiment with NCI-H23 lung, with OVCAR-5 ovarian and in the experiment with RPMI-8226 leukemia was over 100 µM in each case. In addition, the TGI in the experiment with SN12C renal, with U251 CNS, with UACC-257 melanoma and in the experiment with UO-31 renal was over 100 µM in each case.
On to `c1ccc(N=C2c3ccsc3C(=Nc3ccccc3)c3ccsc32)cc1`, for which the TGI in the experiment on ACHN renal was 3.04 µM; with CAKI-1 renal it was 10.2 µM; in the experiment on HCC-2998 colon it was 7.25 µM; in the experiment on NCI-H23 lung, 3.03 µM; with OVCAR-5 ovarian it was 3.12 µM; in the experiment on RPMI-8226 leukemia, 11.7 µM. Also, the TGI with SN12C renal came out at 3.02 µM; in the experiment on U251 CNS it was 4.01 µM; in the experiment with UACC-257 melanoma, 2.67 µM; in the experiment with UO-31 renal it was 3.74 µM.
With `COc1cc(O)c2c(=O)c(OC)c(-c3ccc(OC)c(OC)c3)oc2c1`, the values for the GI50 in the experiment with ACHN renal, in the experiment with HCC-2998 colon and in the experiment with OVCAR-5 ovarian were over 100 µM, 94.4 µM and 23 µM, respectively. For the same molecule, the TGI was over 100 µM in the experiment with ACHN renal; 57.1 µM in the experiment on CAKI-1 renal; over 100 µM in the experiment with HCC-2998 colon; over 100 µM with OVCAR-5 ovarian; over 100 µM in the experiment with RPMI-8226 leukemia; over 100 µM in the experiment on U251 CNS. Besides, the TGI with UACC-257 melanoma and with UO-31 renal was over 100 µM throughout.
For the molecule `COc1ccc(Nc2ccc([N+](=O)[O-])cc2[N+](=O)[O-])cc1CN(CCCl)CCCl`, the GI50 was 1.63 µM with ACHN renal; 1.39 µM with CAKI-1 renal; 2.15 µM in the experiment on HCC-2998 colon; 2.04 µM in the experiment on NCI-H23 lung; 2.51 µM with OVCAR-5 ovarian; 1.86 µM in the experiment on RPMI-8226 leukemia. Moreover, the GI50 in the experiment with SN12C renal was 2.6 µM; in the experiment on U251 CNS it was 3.11 µM; with UACC-257 melanoma, 5.31 µM. Besides, the TGI with ACHN renal was 5.94 µM; in the experiment with CAKI-1 renal it was 4.33 µM; with HCC-2998 colon it was 6.9 µM; in the experiment with NCI-H23 lung, 5.77 µM; with OVCAR-5 ovarian, 8.94 µM; in the experiment with RPMI-8226 leukemia, 9.75 µM. Moreover, the TGI in the experiment on SN12C renal was over 100 µM; in the experiment on U251 CNS, 30 µM; with UACC-257 melanoma, 34.2 µM.
Turning to `CN1CCN(c2ccc3c(c2)NCC(=O)N3)CC1`, the TGI in the experiment on ACHN renal, with CAKI-1 renal, in the experiment with HCC-2998 colon, in the experiment with NCI-H23 lung, with OVCAR-5 ovarian and with RPMI-8226 leukemia was over 100 µM in each case. Moreover, the TGI with U251 CNS, in the experiment with UACC-257 melanoma and with UO-31 renal was over 100 µM in each case.
For the molecule `O=C(c1ccccc1)c1c(CC(O)c2ccncc2)n(C(=O)c2ccccc2)c2ccccc12` (stereo not given), the TGI in the experiment on ACHN renal stood at 67.5 µM; in the experiment with CAKI-1 renal, 59.7 µM; with HCC-2998 colon, 31.5 µM; in the experiment with NCI-H23 lung it was 35 µM; in the experiment with OVCAR-5 ovarian it was 34.5 µM; in the experiment with RPMI-8226 leukemia it was 46.1 µM. Besides, the TGI in the experiment on U251 CNS came to 31.6 µM; with UACC-257 melanoma, 32.9 µM; with UO-31 renal, 31.7 µM.
For `Clc1ccc(C2ON=C(c3ccccc3)N2C23CC4CC(CC(C4)C2)C3)cc1` (stereo not given), the TGI with ACHN renal, in the experiment with CAKI-1 renal, in the experiment on HCC-2998 colon, in the experiment on NCI-H23 lung, with OVCAR-5 ovarian and in the experiment with RPMI-8226 leukemia was over 10 µM in each case. Besides, the TGI in the experiment on SN12C renal, with U251 CNS and with UACC-257 melanoma was over 10 µM in each case.
Regarding `CC(C)(CCC(C)(C)N1OC1c1ccccc1)N1OC1c1ccccc1` (stereo not given), the TGI with ACHN renal was 35.8 µM; in the experiment with CAKI-1 renal, 60.3 µM; in the experiment on HCC-2998 colon it was over 100 µM; in the experiment on NCI-H23 lung, over 100 µM; in the experiment with RPMI-8226 leukemia, 71.4 µM; in the experiment with SN12C renal, over 100 µM. The TGI in the experiment with U251 CNS is over 100 µM; in the experiment on UACC-257 melanoma, over 100 µM; in the experiment on UO-31 renal, 62.7 µM.
